Test results published in patent US20240158446A1, “CYCLIC COMPOUND HAVING SELECTIVE INHIBITORY ACTION ON KRAS OVER HRAS AND NRAS” (CHUGAI SEIYAKU KABUSHIKI KAISHA, priority 2021, published 2024).

What was measured:
[1] = biological target: GDP-bound HRAS wild-type protein (Homo sapiens, UniProt P01112); test: Binding to HRAS by surface plasmon resonance (SPR), Single Cycle Kinetics; conditions: SPR, GDP-bound HRAS wild-type protein vs GDP-bound KRAS wild-type protein
[2] = biological target: GDP-bound NRAS wild-type protein (Homo sapiens, UniProt P01111); test: Binding to NRAS by surface plasmon resonance (SPR), Single Cycle Kinetics; conditions: SPR, GDP-bound NRAS wild-type protein vs GDP-bound KRAS wild-type protein
GDP-bound NRAS wild-type protein, sequence (P01111 whole entry): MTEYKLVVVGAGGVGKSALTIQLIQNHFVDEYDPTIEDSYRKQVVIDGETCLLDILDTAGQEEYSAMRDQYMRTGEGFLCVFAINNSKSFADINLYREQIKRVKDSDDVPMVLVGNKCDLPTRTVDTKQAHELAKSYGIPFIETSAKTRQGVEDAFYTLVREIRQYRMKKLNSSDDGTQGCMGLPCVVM

[3] = biological target: GDP-bound KRAS wild-type protein (Homo sapiens, UniProt P01116); test: Binding to KRAS by surface plasmon resonance (SPR), Single Cycle Kinetics; conditions: SPR, Single Cycle Kinetics, GDP-bound KRAS wild-type protein; read-out: KRAS KD
GDP-bound KRAS wild-type protein, sequence (P01116 whole entry): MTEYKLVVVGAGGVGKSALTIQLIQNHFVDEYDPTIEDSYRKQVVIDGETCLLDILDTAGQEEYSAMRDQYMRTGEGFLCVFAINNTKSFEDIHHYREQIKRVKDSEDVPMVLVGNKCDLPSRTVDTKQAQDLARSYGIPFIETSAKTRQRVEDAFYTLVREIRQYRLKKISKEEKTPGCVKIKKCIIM

GDP-bound HRAS wild-type protein, sequence (P01112 whole entry): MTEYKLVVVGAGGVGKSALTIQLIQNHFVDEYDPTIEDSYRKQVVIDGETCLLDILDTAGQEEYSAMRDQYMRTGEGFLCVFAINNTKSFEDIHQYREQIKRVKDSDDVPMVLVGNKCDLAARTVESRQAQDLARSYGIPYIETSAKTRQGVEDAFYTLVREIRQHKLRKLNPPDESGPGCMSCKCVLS

| Compound | HRAS/KRAS (ratio of KD value for HRAS to KD value for KRAS) [1] | NRAS/KRAS (ratio of KD value for NRAS to KD value for KRAS) [2] | Kd [3] |
| --- | --- | --- | --- |
| CCC[C@H]1C(=O)N[C@@H]([C@@H](C)CC)C(=O)N(C2CC2)CC(=O)N(C)[C@H]2C/C=C\CCN(C2=O)[C@@H](Cc2ccc(C)cc2)C(=O)N(C)CC(=O)N[C@@H](CCc2ccc(C(F)(F)F)c(OC)c2)C(=O)N2C[C@H](OCC)C[C@H]2C(=O)N(C)C2(CCC2)C(=O)N(C)[C@@H](C2CCCC2)C(=O)N(C)[C@H](C(=O)N(C)C)CC(=O)N1C [PP2328, (2S,8S,12R,14S,20S,23S,27S,30S,36S,38Z)-20-cyclopentyl-32-cyclopropyl-12-ethoxy-8-[2-[3-methoxy-4-(trifluoromethyl)phenyl]ethyl]-N,N,4,16,19,22,26,35-octamethyl-30-[(1S)-1-methylpropyl]-3,6,9,15,18,21,25,28,31,34,42-undecaoxo-27-propyl-2-(p-tolylmethyl)spiro[1,4,7,10,16,19,22,26,29,32,35-undecazatricyclo[34.5.1.0^10,14]dotetracont-38-ene-17,1′-cyclobutane]-23-carboxamide] | A (a compound having 10 or more and less than 20 is denoted as A) | A (a compound having 10 or more and less than 20 is denoted as A) | 0.079 nM |
| CCC[C@H]1C(=O)N[C@@H]([C@@H](C)CC)C(=O)N2CCC[C@H]2C(=O)N(C)[C@H]2C/C=C\CCN(C2=O)[C@@H](Cc2ccc(C)cc2)C(=O)N(C)CC(=O)N[C@@H](CCc2ccc(C(F)(F)F)c(OC)c2)C(=O)N2C[C@H](OCC)C[C@H]2C(=O)N(C)C2(CCC2)C(=O)N(C)[C@@H](C(CC)CC)C(=O)N(C)[C@H](C(=O)N(C)C)CC(=O)N1C [PP2329] | A (a compound having 10 or more and less than 20 is denoted as A) | A (a compound having 10 or more and less than 20 is denoted as A) | 0.42 nM |
| CCCOC[C@H]1C(=O)N[C@@H]([C@@H](C)CC)C(=O)N(C2CC2)CC(=O)N(C)[C@H]2C/C=C\CCN(C2=O)[C@@H](Cc2ccc(C)cc2)C(=O)N(C)CC(=O)N[C@@H](CCc2ccc(C(F)(F)F)c(OC)c2)C(=O)N2C[C@H](OCC)C[C@H]2C(=O)N(C)C2(CCC2)C(=O)N(C)[C@@H](C2CCCC2)C(=O)N(C)[C@H](C(=O)N(C)C)CC(=O)N1C [PP2330] | A (a compound having 10 or more and less than 20 is denoted as A) | A (a compound having 10 or more and less than 20 is denoted as A) | 0.11 nM |
| CCCOC[C@H]1C(=O)N[C@@H]([C@@H](C)CC)C(=O)N2CCC[C@H]2C(=O)N(C)[C@H]2C/C=C\CCN(C2=O)[C@@H](Cc2ccc(C)cc2)C(=O)N(C)CC(=O)N[C@@H](CCc2ccc(C(F)(F)F)c(OC)c2)C(=O)N2C[C@H](OCC)C[C@H]2C(=O)N(C)C2(CCC2)C(=O)N(C)[C@@H](C(CC)CC)C(=O)N(C)[C@H](C(=O)N(C)C)CC(=O)N1C [PP2331] | A (a compound having 10 or more and less than 20 is denoted as A) | AA (a compound having 20 or more is denoted as AA) | 0.36 nM |
| CCC[C@H]1C(=O)N[C@@H]([C@@H](C)CC)C(=O)N2CCC[C@H]2C(=O)N(C)[C@H]2C/C=C\CCN(C2=O)[C@@H](Cc2ccc(C)cc2)C(=O)N(C)CC(=O)N[C@@H](CCc2ccc(C(F)(F)F)c(OC)c2)C(=O)N2C[C@H](OCC)C[C@H]2C(=O)N(C)C2(CCC2)C(=O)N(C)[C@@H](C2CCCC2)C(=O)N(C)[C@H](C(=O)N(C)C)CC(=O)N1C [PP2332] | B (a compound having 3 or more and less than 10 is denoted as B) | A (a compound having 10 or more and less than 20 is denoted as A) | 0.1 nM |
| CCCOC[C@H]1C(=O)N[C@@H]([C@@H](C)CC)C(=O)N2CCC[C@H]2C(=O)N(C)[C@H]2C/C=C\CCN(C2=O)[C@@H](Cc2ccc(C)cc2)C(=O)N(C)CC(=O)N[C@@H](CCc2ccc(C(F)(F)F)c(OC)c2)C(=O)N2C[C@H](OCC)C[C@H]2C(=O)N(C)C2(CCC2)C(=O)N(C)[C@@H](C2CCCC2)C(=O)N(C)[C@H](C(=O)N(C)C)CC(=O)N1C [PP2334] | B (a compound having 3 or more and less than 10 is denoted as B) | A (a compound having 10 or more and less than 20 is denoted as A) | 0.13 nM |
| CCO[C@@H]1C[C@H]2C(=O)N(C)C3(CCC3)C(=O)N(C)[C@@H](C(CC)CC)C(=O)N(C)[C@H](C(=O)N(C)C)CC(=O)N(C)[C@@H](COC)C(=O)N[C@@H]([C@@H](C)CC)C(=O)N(C)CC(=O)N(C)[C@H]3C/C=C\CCN(C3=O)[C@@H](CC3CCCCC3)C(=O)N(C)CC(=O)N[C@@H](CCc3ccc(C(F)(F)F)c(OC)c3)C(=O)N2C1 [PP2335] | A (a compound having 10 or more and less than 20 is denoted as A) | A (a compound having 10 or more and less than 20 is denoted as A) | 1.4 nM |
| CCC[C@H]1C(=O)N[C@@H]([C@@H](C)CC)C(=O)N(C)CC(=O)N(C)[C@H]2C/C=C\CCN(C2=O)[C@@H](CC2CCCCC2)C(=O)N(C)CC(=O)N[C@@H](CCc2ccc(C(F)(F)F)c(OC)c2)C(=O)N2C[C@H](OCC)C[C@H]2C(=O)N(C)C2(CCC2)C(=O)N(C)[C@@H](C2CCCC2)C(=O)N(C)[C@H](C(=O)N(C)C)CC(=O)N1C [PP2336] | A (a compound having 10 or more and less than 20 is denoted as A) | A (a compound having 10 or more and less than 20 is denoted as A) | 0.41 nM |
| CCO[C@@H]1C[C@H]2C(=O)N(C)C3(CCC3)C(=O)N(C)[C@@H](C(CC)CC)C(=O)N(C)[C@H](C(=O)N(C)C)CC(=O)N(C)[C@@H](COC)C(=O)N[C@@H]([C@@H](C)CC)C(=O)N(C3CC3)CC(=O)N(C)[C@H]3C/C=C\CCN(C3=O)[C@@H](CC3CCCCC3)C(=O)N(C)CC(=O)N[C@@H](CCc3ccc(C(F)(F)F)c(OC)c3)C(=O)N2C1 [PP2339] | A (a compound having 10 or more and less than 20 is denoted as A) | A (a compound having 10 or more and less than 20 is denoted as A) | 2.6 nM |
| CCC[C@H]1C(=O)N[C@@H]([C@@H](C)CC)C(=O)N2CCC[C@H]2C(=O)N(C)[C@H]2C/C=C\CCN(C2=O)[C@@H](CC2CCCCC2)C(=O)N(C)CC(=O)N[C@@H](CCc2ccc(C(F)(F)F)c(OC)c2)C(=O)N2C[C@H](OCC)C[C@H]2C(=O)N(C)C2(CCC2)C(=O)N(C)[C@@H](C(CC)CC)C(=O)N(C)[C@H](C(=O)N(C)C)CC(=O)N1C [PP2341] | A (a compound having 10 or more and less than 20 is denoted as A) | A (a compound having 10 or more and less than 20 is denoted as A) | 3.6 nM |
| CCC[C@H]1C(=O)N[C@@H]([C@@H](C)CC)C(=O)N2CCC[C@H]2C(=O)N(C)[C@H]2C/C=C\CCN(C2=O)[C@@H](CC2CCCCC2)C(=O)N(C)CC(=O)N[C@@H](CCc2ccc(C(F)(F)F)c(OC)c2)C(=O)N2C[C@H](OCC)C[C@H]2C(=O)N(C)C2(CCC2)C(=O)N(C)[C@@H](C2CCCC2)C(=O)N(C)[C@H](C(=O)N(C)C)CC(=O)N1C [PP2344] | A (a compound having 10 or more and less than 20 is denoted as A) | A (a compound having 10 or more and less than 20 is denoted as A) | 0.95 nM |
| CCC[C@H]1C(=O)N[C@@H]([C@@H](C)CC)C(=O)N(C)CC(=O)N(C)[C@H]2C/C=C\CCN(C2=O)[C@@H](CC2CCC(F)(F)CC2)C(=O)N(C)CC(=O)N[C@@H](CCc2ccc(C(F)(F)F)c(OC)c2)C(=O)N2C[C@H](OCC)C[C@H]2C(=O)N(C)C2(CCC2)C(=O)N(C)[C@@H](C(CC)CC)C(=O)N(C)[C@H](C(=O)N(C)C)CC(=O)N1C [PP2345] | A (a compound having 10 or more and less than 20 is denoted as A) | A (a compound having 10 or more and less than 20 is denoted as A) | 1.7 nM |
| CCOC[C@H]1C(=O)N[C@@H]([C@@H](C)CC)C(=O)N(C)CC(=O)N(C)[C@H]2C/C=C\CCN(C2=O)[C@@H](CC2CCC(F)(F)CC2)C(=O)N(C)CC(=O)N[C@@H](CCc2ccc(C(F)(F)F)c(OC)c2)C(=O)N2C[C@H](OCC)C[C@H]2C(=O)N(C)C2(CCC2)C(=O)N(C)[C@@H](C(CC)CC)C(=O)N(C)[C@H](C(=O)N(C)C)CC(=O)N1C [PP2347] | A (a compound having 10 or more and less than 20 is denoted as A) | A (a compound having 10 or more and less than 20 is denoted as A) | 1.6 nM |
| CCC[C@H]1C(=O)N[C@@H]([C@@H](C)CC)C(=O)N(C)CC(=O)N(C)[C@H]2C/C=C\CCN(C2=O)[C@@H](CC2CCC(F)(F)CC2)C(=O)N(C)CC(=O)N[C@@H](CCc2ccc(C(F)(F)F)c(OC)c2)C(=O)N2C[C@H](OCC)C[C@H]2C(=O)N(C)C2(CCC2)C(=O)N(C)[C@@H](C2CCCC2)C(=O)N(C)[C@H](C(=O)N(C)C)CC(=O)N1C [PP2348] | A (a compound having 10 or more and less than 20 is denoted as A) | A (a compound having 10 or more and less than 20 is denoted as A) | 0.34 nM |
